Source: publication PMC4515243, “Phase 1 pharmacokinetic study of the oral pan-AKT inhibitor MK-2206 in Japanese patients with advanced solid tumors” (Cancer Chemotherapy and Pharmacology, 2015)
Where “and” joins values, the source holds several entries; their conditions need not be identical. Equal values may be shown once.

System: Japanese patients with advanced solid tumors
Test: phase 1 safety and tolerability (DLT, adverse events) in Japanese patients;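 also: toxicities graded by NCI CTCAE version 3.0, treatment given until disease progression or unacceptable toxicity, three to nine patients enrolled per dose level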
[1] = all cohorts (n = 24), all treatment cycles

Source text: Treatment was continued until disease progression or the occurrence of an unacceptable toxicity.
A minimum of three and up to nine patients were enrolled at each dose level based on the toxicity probability intervals [9].
Adverse events were graded using the National Cancer Institute Common Terminology Criteria for Adverse Events, version 3.0.

## NC1(c2ccc(-c3nc4ccn5c(=O)[nH]nc5c4cc3-c3ccccc3)cc2)CCC1 [MK-2206]
135 mg QW (n = 3), Grades 3–5
  Eosinophilia, drug-related adverse event, patients: 0
  Erythema multiforme, drug-related adverse event, patients: 0
  Fatigue, drug-related adverse event, patients: 0
  HbA1C increased, drug-related adverse event, patients: 0
  Hyperglycemia, drug-related adverse event, patients: 0
  Hypernatremia, drug-related adverse event, patients: 0
  Hypoalbuminemia, drug-related adverse event, patients: 0
  Hypokalemia, drug-related adverse event, patients: 0
  Insulin c-peptide increased, drug-related adverse event, patients: 0
  Leukopenia, drug-related adverse event, patients: 0
  Localized edema, drug-related adverse event, patients: 0
  Lymphopenia, drug-related adverse event, patients: 0
  Nausea, drug-related adverse event, patients: 0
  Neutropenia, drug-related adverse event, patients: 0
  Palmar-plantar erythrodysaesthesia syndrome, drug-related adverse event, patients: 0
  Pruritus, drug-related adverse event, patients: 0
  Pyrexia, drug-related adverse event, patients: 0
  Rash, drug-related adverse event, patients: 0
  Stomatitis, drug-related adverse event, patients: 0
  Vomiting, drug-related adverse event, patients: 0
200 mg QW
  patients who discontinued treatment because of grade 2 rash: One patient
  patients with DLTs during Cycle 1: Three of the nine
200 mg QW (n = 9), All grades
  ALT increased, drug-related adverse event, patients: 3
  Blood creatinine increased, drug-related adverse event, patients: 6
  Decreased appetite, drug-related adverse event, patients: 4
  Diarrhea, drug-related adverse event, patients: 3
  Dry skin, drug-related adverse event, patients: 2
  Eosinophil count increased, drug-related adverse event, patients: 5
  Eosinophilia, drug-related adverse event, patients: 4
  Erythema multiforme, drug-related adverse event, patients: 4
  Fatigue, drug-related adverse event, patients: 4
  HbA1C increased, drug-related adverse event, patients: 4
  Hyperglycemia, drug-related adverse event, patients: 6
  Hypernatremia, drug-related adverse event, patients: 4
  Hypoalbuminemia, drug-related adverse event, patients: 2
  Hypokalemia, drug-related adverse event, patients: 2
  Insulin c-peptide increased, drug-related adverse event, patients: 5
  Leukopenia, drug-related adverse event, patients: 8
  Localized edema, drug-related adverse event, patients: 4
  Lymphopenia, drug-related adverse event, patients: 2
  Nausea, drug-related adverse event, patients: 3
  Neutropenia, drug-related adverse event, patients: 4
  Palmar-plantar erythrodysaesthesia syndrome, drug-related adverse event, patients: 2
  Pruritus, drug-related adverse event, patients: 5
  Pyrexia, drug-related adverse event, patients: 5
  Rash, drug-related adverse event, patients: 6
  Stomatitis, drug-related adverse event, patients: 6
  Vomiting, drug-related adverse event, patients: 3
200 mg QW (n = 9), Grades 3–5
  ALT increased, drug-related adverse event, patients: 1
  Blood creatinine increased, drug-related adverse event, patients: 0
  Decreased appetite, drug-related adverse event, patients: 1
  Diarrhea, drug-related adverse event, patients: 0
  Dry skin, drug-related adverse event, patients: 0
  Eosinophil count increased, drug-related adverse event, patients: 0
  Eosinophilia, drug-related adverse event, patients: 0
  Erythema multiforme, drug-related adverse event, patients: 2
  Fatigue, drug-related adverse event, patients: 0
  HbA1C increased, drug-related adverse event, patients: 0
  Hyperglycemia, drug-related adverse event, patients: 2
  Hypernatremia, drug-related adverse event, patients: 1
  Hypoalbuminemia, drug-related adverse event, patients: 0
  Hypokalemia, drug-related adverse event, patients: 0
  Insulin c-peptide increased, drug-related adverse event, patients: 0
  Leukopenia, drug-related adverse event, patients: 1
  Localized edema, drug-related adverse event, patients: 0
  Lymphopenia, drug-related adverse event, patients: 2
  Nausea, drug-related adverse event, patients: 1
  Neutropenia, drug-related adverse event, patients: 0
  Palmar-plantar erythrodysaesthesia syndrome, drug-related adverse event, patients: 0
  Pruritus, drug-related adverse event, patients: 0
  Pyrexia, drug-related adverse event, patients: 0
  Rash, drug-related adverse event, patients: 0
  Stomatitis, drug-related adverse event, patients: 0
  Vomiting, drug-related adverse event, patients: 0
200 mg QW, grade 3 facial edema and grade 3 erythema multiforme
  time until onset of DLTs: 10 days
200 mg QW, grade 3 hyperglycemia and grade 3 erythema multiforme
  time until onset of DLTs: 11 days
200 mg QW, grade 4 hyponatremia
  time until onset of DLT: 10 days
Total (n = 24), All grades
  ALT increased, drug-related adverse event, patients: 4
  Blood creatinine increased, drug-related adverse event, patients: 8/24 and 8
  Decreased appetite, drug-related adverse event, patients: 7
  Diarrhea, drug-related adverse event, patients: 10/24 and 10
  Dry skin, drug-related adverse event, patients: 5
  Eosinophil count increased, drug-related adverse event, patients: 7
  Eosinophilia, drug-related adverse event, patients: 13/24 and 13
  Erythema multiforme, drug-related adverse event, patients: 4
  Fatigue, drug-related adverse event, patients: 10
  HbA1C increased, drug-related adverse event, patients: 7
  Hyperglycemia, drug-related adverse event, patients: 12/24 and 12
  Hypernatremia, drug-related adverse event, patients: 5
  Hypoalbuminemia, drug-related adverse event, patients: 4
  Hypokalemia, drug-related adverse event, patients: 4
  Insulin c-peptide increased, drug-related adverse event, patients: 16/24 and 16
  Leukopenia, drug-related adverse event, patients: 12/24 and 12
  Localized edema, drug-related adverse event, patients: 4
  Lymphopenia, drug-related adverse event, patients: 9/24 and 9
  Nausea, drug-related adverse event, patients: 5
  Neutropenia, drug-related adverse event, patients: 9/24 and 9
  Palmar-plantar erythrodysaesthesia syndrome, drug-related adverse event, patients: 4
  Pruritus, drug-related adverse event, patients: 10
  Pyrexia, drug-related adverse event, patients: 13/24 and 13
  Rash, drug-related adverse event, patients: 20/24 and 20
  Stomatitis, drug-related adverse event, patients: 14/24 and 14
  Vomiting, drug-related adverse event, patients: 4
Total (n = 24), Grades 3–5
  ALT increased, drug-related adverse event, patients: 1
  Blood creatinine increased, drug-related adverse event, patients: 0
  Decreased appetite, drug-related adverse event, patients: 1
  Diarrhea, drug-related adverse event, patients: 1
  Dry skin, drug-related adverse event, patients: 0
  Eosinophil count increased, drug-related adverse event, patients: 0
  Eosinophilia, drug-related adverse event, patients: 0
  Erythema multiforme, drug-related adverse event, patients: 2
  Fatigue, drug-related adverse event, patients: 0
  HbA1C increased, drug-related adverse event, patients: 0
  Hyperglycemia, drug-related adverse event, patients: 2
  Hypernatremia, drug-related adverse event, patients: 1
  Hypoalbuminemia, drug-related adverse event, patients: 0
  Hypokalemia, drug-related adverse event, patients: 0
  Insulin c-peptide increased, drug-related adverse event, patients: 0
  Leukopenia, drug-related adverse event, patients: 1
  Localized edema, drug-related adverse event, patients: 0
  Lymphopenia, drug-related adverse event, patients: 6
  Nausea, drug-related adverse event, patients: 1
  Neutropenia, drug-related adverse event, patients: 1
  Palmar-plantar erythrodysaesthesia syndrome, drug-related adverse event, patients: 0
  Pruritus, drug-related adverse event, patients: 0
  Pyrexia, drug-related adverse event, patients: 0
  Rash, drug-related adverse event, patients: 1
  Stomatitis, drug-related adverse event, patients: 0
  Vomiting, drug-related adverse event, patients: 0
All cohorts
  treatment-related deaths: No treatment-related deaths
[1]
  diarrhea related to MK-2206, percent of patients: 41.7%
  elevated blood creatinine level related to MK-2206, percent of patients: 33.3%
  elevated insulin c-peptide level related to MK-2206, percent of patients: 66.7%
  eosinophilia related to MK-2206, percent of patients: 54.2%
  hyperglycemia related to MK-2206, percent of patients: 50.0%
  leukopenia related to MK-2206, percent of patients: 50.0%
  lymphopenia related to MK-2206, percent of patients: 37.5%
  neutropenia related to MK-2206, percent of patients: 37.5%
  pyrexia related to MK-2206, percent of patients: 54.2%
  rash related to MK-2206, percent of patients: 83.3%
  stomatitis related to MK-2206, percent of patients: 58.3%
